Assay results from US20140057953A1, “BIARYL DERIVATIVES AS SELECTIVE 17BETA-HYDROXYSTEROID DEHYDROGENASE TYPE 2 INHIBITORS” (priority 2011, published 2014).
Where two headings read alike, the source gives them in different places.

Legend:
17β-HSD2 [1] = molecular target: T1, 17β-HSD2 (Homo sapiens, UniProt P37059); settings: cited from earlier work
T1 sequence (P37059 1-387): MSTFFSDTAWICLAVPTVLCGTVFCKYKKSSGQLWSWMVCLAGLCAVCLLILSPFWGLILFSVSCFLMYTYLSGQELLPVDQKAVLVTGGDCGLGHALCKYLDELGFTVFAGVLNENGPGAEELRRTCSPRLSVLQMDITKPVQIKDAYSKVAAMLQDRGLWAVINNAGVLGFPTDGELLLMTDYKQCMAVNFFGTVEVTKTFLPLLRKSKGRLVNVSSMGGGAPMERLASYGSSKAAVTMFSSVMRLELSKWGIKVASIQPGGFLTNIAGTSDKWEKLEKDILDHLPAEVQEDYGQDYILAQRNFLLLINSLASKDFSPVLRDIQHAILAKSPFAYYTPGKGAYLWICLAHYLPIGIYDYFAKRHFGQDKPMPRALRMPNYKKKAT

17β-HSD2 [2] = molecular target: T1, 17β-HSD2; assay: Inhibition of 17β-HSD2 in MDA-MB-231 cellular assay; type: cell-based; settings: MDA-MB-231 cells, substrate [3H]-E2 200 nM
Description: [^3H-E2] (200 nM) is used as substrate, and is incubated with the inhibitor for 3.5 h at 37° C. After ether extraction, substrate and product are separated by HPLC and detected with a radioflow detector following the method previously described.

17β-HSD1 = molecular target: T2, 17β-HSD1 (Homo sapiens, UniProt P14061); assay: Inhibition of 17β-HSD1 in cell-free assay; type: biochemical; settings: human placenta, cytosolic fraction, substrate E1 500 nM, cofactor NADH 500 μM
T2 construct: For the partial purification of 17β-HSD1, the cytosolic fraction was precipitated with ammonium sulfate; from tissue; host or cells: human placenta, cytosolic fraction
T2 sequence (P14061 1-328): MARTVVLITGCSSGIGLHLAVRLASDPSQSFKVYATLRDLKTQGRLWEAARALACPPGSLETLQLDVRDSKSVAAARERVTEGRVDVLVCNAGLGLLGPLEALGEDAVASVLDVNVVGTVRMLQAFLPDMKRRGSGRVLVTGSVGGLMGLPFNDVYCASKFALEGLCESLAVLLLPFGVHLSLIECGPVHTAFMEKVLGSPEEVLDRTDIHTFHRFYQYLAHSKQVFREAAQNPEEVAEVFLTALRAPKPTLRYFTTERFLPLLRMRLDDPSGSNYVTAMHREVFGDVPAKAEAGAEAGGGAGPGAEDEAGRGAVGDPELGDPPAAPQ
Description: (§1) Fresh human placenta was homogenized. Cytosolic and microsomal fractions were separated by centrifugation at 1000 g, 10000 g and 150000 g. 17β-HSD2 was obtained directly from the microsomal fraction. For the partial purification of 17β-HSD1, the cytosolic fraction was precipitated with ammonium sulfate. Aliquots containing 17β-HSD1 or 17β-HSD2 were stored frozen.
The 17β-HSD1 inhibition assay was performed similarly to the 17β-HSD2 test. The cytosolic fraction was incubated with NADH [500 μM], test compound and a mixture of unlabelled- and [^3H]-E1 (final concentration: 500 nM, 0.15 μCi) for 10 min at 37° C. Further treatment of the samples and HPLC separation was carried out as mentioned above for 17β-HSD2.

ERα = molecular target: T3, ERα (Homo sapiens, UniProt P03372); assay: ER affinity assay (ERα), [3H]-E2 displacement; settings: Relative Binding Affinity, E2 = 100%; recombinant human protein
T3 sequence (P03372 1-595): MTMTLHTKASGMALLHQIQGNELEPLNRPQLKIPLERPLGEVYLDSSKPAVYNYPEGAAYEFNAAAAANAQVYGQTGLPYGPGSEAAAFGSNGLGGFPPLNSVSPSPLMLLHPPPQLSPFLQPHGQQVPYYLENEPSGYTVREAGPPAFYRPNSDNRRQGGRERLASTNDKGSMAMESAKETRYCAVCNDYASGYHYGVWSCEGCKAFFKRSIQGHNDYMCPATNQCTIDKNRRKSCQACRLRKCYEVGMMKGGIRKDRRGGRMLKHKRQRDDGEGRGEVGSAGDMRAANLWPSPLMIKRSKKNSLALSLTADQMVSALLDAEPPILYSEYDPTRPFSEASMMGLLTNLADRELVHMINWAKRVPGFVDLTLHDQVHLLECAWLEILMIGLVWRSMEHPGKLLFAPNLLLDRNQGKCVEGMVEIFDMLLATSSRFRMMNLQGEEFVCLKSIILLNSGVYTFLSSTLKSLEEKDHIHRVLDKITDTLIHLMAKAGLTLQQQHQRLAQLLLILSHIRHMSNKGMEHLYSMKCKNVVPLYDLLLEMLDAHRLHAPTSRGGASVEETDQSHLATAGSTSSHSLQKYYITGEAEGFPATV
Description: (§2) The binding affinity of selected compounds to the ERα and ERβ was determined according to Zimmermann et al. (Zimmermann, J. et al., 3. Steroid Biochem. Mol. Biol., 94:57-66 (2005)) using recombinant human proteins. Briefly, 0.25 μM of ERα or ERβ, respectively, were incubated with [^3H]-E2 (10 nM) and test compound for 1 h at room temperature. The potential inhibitors were dissolved in DMSO (5% final concentration). Evaluation of non-specific-binding was performed with diethylstilbestrol (10 μM). After incubation, ligand-receptor complexes were selectively bound to hydroxyapatite (5 g/60 ml TE-buffer). The formed complex was separated, washed and resuspended in ethanol. For radiodetection, scintillator cocktail (Quickszint 212, Zinsser Analytic, Frankfurt) was added and the samples were measured in a liquid scintillation counter (Rack Beta Primo 1209, Wallac, Turku). […] The compound concentration to displace 50% of the receptor bound [^3H]-E2 were determined. Unlabelled E2 was used as a reference. For determination of the relative binding affinity (RBA) the ratio was calculated according to the following equation: […]
(§3) After the assay was established and validated a modification was made to increase throughput. […] Results were reported as RBA ranges.

ERβ = ERβ (Homo sapiens, UniProt Q92731); assay: ER affinity assay (ERβ), [3H]-E2 displacement; settings: Relative Binding Affinity, E2 = 100%; recombinant human protein
ERβ, sequence (Q92731 whole entry): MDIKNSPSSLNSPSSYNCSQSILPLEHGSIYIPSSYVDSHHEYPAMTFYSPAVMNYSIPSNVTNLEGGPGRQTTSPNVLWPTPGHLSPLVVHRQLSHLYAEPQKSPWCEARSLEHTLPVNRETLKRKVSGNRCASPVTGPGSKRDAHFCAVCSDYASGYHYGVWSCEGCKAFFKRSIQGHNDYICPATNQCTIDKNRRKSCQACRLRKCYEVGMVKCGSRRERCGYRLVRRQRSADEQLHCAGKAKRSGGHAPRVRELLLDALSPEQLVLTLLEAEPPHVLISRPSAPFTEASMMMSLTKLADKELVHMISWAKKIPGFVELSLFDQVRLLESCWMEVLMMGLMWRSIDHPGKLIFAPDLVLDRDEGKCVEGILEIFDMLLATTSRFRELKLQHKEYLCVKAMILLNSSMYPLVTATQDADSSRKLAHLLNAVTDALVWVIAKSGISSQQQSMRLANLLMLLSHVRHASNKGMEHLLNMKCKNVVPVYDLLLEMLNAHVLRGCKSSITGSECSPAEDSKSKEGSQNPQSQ
Description: as §2, §3

17β-HSD2 [3] = molecular target: T1, 17β-HSD2; assay: Inhibition of 17β-HSD2 in cell-free assay; type: biochemical; design: 17β-HSD2 was obtained directly from the microsomal fraction; from tissue; host or cells: human placenta, microsomal fraction; settings: human placenta, microsomal fraction, substrate E2 500 nM, cofactor NAD+ 1500 μM
Description: as §1
Inhibitor stock solutions were prepared in DMSO. Final concentration of DMSO was adjusted to 1% in all samples. The enzymatic reaction was started by addition of a mixture of unlabelled- and [^3H]-E2 (final concentration: 500 nM, 0.11 μCi). After 20 min at 37° C., the incubation was stopped with HgCl2 and the mixture was extracted with ether. After evaporation, the steroids were dissolved in acetonitrile. E1 and E2 were separated using acetonitrile/water (45:55) as mobile phase in a C18 RP chromatography column (Nucleodur C18, 3 μm, Macherey-Nagel, Duren) connected to a HPLC-system (Agilent 1100 Series, Agilent Technologies, Waldbronn). Detection and quantification of the steroids were performed using a radioflow detector (Berthold Technologies, Bad Wildbad). The conversion rate was calculated according to the following equation: […]

osteoporosis model = settings: monkeys; cited from earlier work

Row | Compound | inhibition at 1 µM (17β-HSD2 [2]) | IC50 (17β-HSD1) | ERα RBA (%) (ERα) | ERβ RBA (%) (ERβ) | IC50 (17β-HSD2 [3]) | inhibitory activity (17β-HSD2) (17β-HSD2 [1]; at 100 nM) | inhibitory activity (17β-HSD2) (17β-HSD2 [1]; at 1 μM) | effect on local level of E2 and T in bones (osteoporosis model)
1 | C[C@]12CCC3c4ccc(O)cc4CCC3C1CC[C@@]21CCCC(=O)O1 (stereo partly drawn) [C17-spirolactone 1] | – | – | – | – | – | 40% | 70% | –
2 | COc1ccc(-c2ccc(C(=O)N(C)Cc3cccc(O)c3)s2)cc1 [compound 39, N-(3-Hydroxybenzyl)-5-(4-methoxyphenyl)-N-methylthiophene-2-carboxamide] | 88% | > 40000 nM | <0.1% | <0.1% | 161 nM | – | – | –
3 | COc1cccc(N(C)C(=O)c2ccc(-c3cccc(OC)c3F)s2)c1 [compound 56, 5-(2-Fluoro-3-methoxyphenyl)-N-(3-methoxyphenyl)-N-methylthiophene-2-carboxamide] | 70% | – | <0.1% | <0.1% | 62 nM | – | – | –
4 | CN1C(=O)C[C@H](c2ccccc2)[C@@H]1[C@H](O)c1ccc(-c2cccnc2)s1 [inhibitor 3] | – | – | – | – | – | – | – | helps to maintain a sufficient local level of E2 and T in bones

The next lines start with results.

Row | inhibition at 1 µM (17β-HSD2 [2]) | IC50 (17β-HSD1) | ERα RBA (%) (ERα) | ERβ RBA (%) (ERβ) | IC50 (17β-HSD2 [3]) | Compound | inhibitory activity (17β-HSD2) (17β-HSD2 [1]; at 100 nM) | inhibitory activity (17β-HSD2) (17β-HSD2 [1]; at 1 μM) | effect on local level of E2 and T in bones (osteoporosis model)
5 | 67% | 4340 nM | <0.1% | <0.1% | 207 nM | COc1cccc(N(C)C(=O)c2ccc(-c3ccccc3)s2)c1 [compound 51, N-(3-Methoxyphenyl)-N-methyl-5-phenylthiophene-2-carboxamide] | – | – | –
6 | 50% | 11500 nM | <0.1% | <0.1% | 207 nM | COc1cccc(-c2ccc(C(=O)N(C)c3cccc(C)c3)s2)c1 [compound 70, 5-(3-Methoxyphenyl)-N-methyl-N-m-tolylthiophene-2-carboxamide] | – | – | –
7 | 75% | 2980 nM | <0.1% | <0.1% | 148 nM | CN(Cc1cccc(O)c1)C(=O)c1ccc(-c2ccccc2O)s1 [compound 28, N-(3-Hydroxybenzyl)-5-(2-hydroxyphenyl)-N-methylthiophene-2-carboxamide] | – | – | –
8 | – | 10600 nM | <0.1% | <0.1% | 169 nM | COc1cccc(N(C)C(=O)c2ccc(-c3cccc(N(C)C)c3)s2)c1 [compound 58, 5-(3-(Dimethylamino)phenyl)-N-(3-methoxyphenyl)-N-methylthiophene-2-carboxamide] | – | – | –
9 | – | > 5450 nM | <0.1% | <0.1% | 394 nM | CN(Cc1cccc(O)c1)C(=O)c1ccc(-c2cccc(O)c2)s1 [compound 24, N-(3-Hydroxybenzyl)-5-(3-hydroxyphenyl)-N-methylthiophene-2-carboxamide] | – | – | –
10 | – | 10600 nM | <0.1% | <0.1% | 163 nM | Cc1cccc(-c2ccc(C(=O)N(C)Cc3cccc(O)c3)s2)c1 [compound 46, N-(3-Hydroxybenzyl)-N-methyl-5-m-tolylthiophene-2-carboxamide] | – | – | –
